We go through 35 molecules from patent US9914711B2 (priority 2013, dated 2018).

SMILES strings stand for the structures.

In one series the test system is C. violaceum CV026. Put plainly: Preliminary screening of bacterial quorum sensing agonistic / inhibitory activity on LB plate (purple stain / white circle). Format: cell-based. Particulars: for Regulatory activity (bacterial quorum sensing regulatory activity): 1 μl of 0.065M compound spotted on plate, inhibitory screen with inducer C6-HSL, 30° C., 16-18 h; for Effect on bacterial quorum sensing (summary in words): summary of the activity evaluation experiments. On the procedure: 1.1 Preparation work: different compounds to be tested (Compounds 1-40 prepared in Example 1-40) were weighted and then were dissolved in 200 μl DMSO (dimethyl sulfoxide) to prepare a solution at a concentration of 0.065M. 5.0 mg inducer, N-hexanoyl homoserine lactone (C6-HSL, purchased from Sigma Company), was weighted and was dissolved in 200 μl DMSO (at a concentration of 0.125M), and the compounds and the inducer were stored at 4 for further use. C. violaceum CV026 (donated by Professor McLean J C from Texas State University) in LB culture medium (LB culture medium consisting of 1% (percentage by mass) tryptone, 0.5% (percentage by mass) yeast extract, 1% (percentage by mass) NaCl and water) was cultured under shaking in a shaker at 30, 200 rpm to get the culture medium for further use.
1.2 Method for preliminary screening of compounds having agonistic activity: 400 μl C. violaceum CV026 (at a bacterial concentration of 1×10^8/ml) was added to 5 ml melted semi-solid LB culture medium, and was mixed well; the mixed culture medium was poured into a solid LB plate; when the mixed culture medium was solidified on the plate, lattice was made thereon; 1 μl of the dissolved compounds to be tested (Compounds 1-40 in Examples 1-40, at a concentration of 0.065M) was spotted on the plate; when the compounds on the plate was dried in air, the plate was put in a 30° C. oven upside down and was cultured for a period of 16-18 h. If the compound to be tested has an agonistic effect on C. violaceum CV026 on the LB plate, purple stain will be induced on the LB plate. The agonistic activity of a compound is determined depending on whether purple stain is induced for C. violaceum CV026 on LB plate as well as the purple depth.
1.3 Method for preliminary screening of compounds having inhibitory activity: the inducer C6-HSL was diluted gradiently to 1000 times by means of 2-fold dilution; 15 μl diluted inducer and 400 μl C. violaceum CV026 in exponential phase (at a bacterial concentration of 1×10^8/ml) were mixed well and then were added to a 5 ml melted semi-solid LB culture medium; the mixture of inducer, C. violaceum, and semi-solid LB was poured onto a solid LB plate; when the mixture was solidified on the plate, lattice was made thereon: 1 μl of the dissolved compounds to be tested (Compounds 1-40 in Examples 1-40, at a concentration of 0.065M) was spotted on the plate; when the compounds on the plate were dried in air, the plate was put in a 30° C. oven upside down and was cultured for a period of 16-18 h. If the compound to be tested has an inhibitory effect on C. violaceum CV026 on the LB plate, white circle will appear on the LB plate. The inhibitory activity of a compound is preliminary determined depending on the size of the white circle appeared after C. violaceum CV026 was inhibited on LB plate.
It is found after preliminary screening that 22 compounds according to the invention have bacterial quorum sensing regulatory activity, and the screening result was shown in Table 1.

A word on the melting point: it is the temperature of the solid-liquid transition. `CCCCCNC(=O)NN1CCOC1=O` [Compound 16, 1-(2-oxo-oxazolidin-3-yl)-3-pentyl urea] gave a melting point of 83 to 86 °C. Molecule `O=C(CCc1ccc([N+](=O)[O-])cc1)NN1CCOC1=O` [Compound 36] yielded a melting point of 143 to 145 °C. In the series with C. violaceum CV026, the “Regulatory activity (bacterial quorum sensing regulatory activity)” value (“Regulatory activity” below) was “+”. `Cc1cccc(C(=O)NN2CCOC2=O)c1` [Compound 8, 3-methyl-N-(2-oxo-oxazolidin-3-yl)benzamide] came in with a melting point of 148 to 150 °C. Besides, in the series on C. violaceum CV026, the “Regulatory activity” value is given as “+”. Molecule `O=C(NN1CCOC1=O)c1ccc(F)cc1` [Compound 1, 4-fluoro-N-(2-oxo-oxazolidin-3-yl)benzamide] yielded a melting point of 189 to 192 °C. Consider `CCCCCCCNC(=O)NN1CCOC1=O` [Compound 18, 1-(2-oxo-oxazolidin-3-yl)-3-heptyl urea], for which the melting point lay in the range of 68 to 69 °C. Further, in the series with C. violaceum CV026, the “Regulatory activity” value is “−” and the “Effect on bacterial quorum sensing (summary in words)” value (“Effect on bacterial quorum sensing” for short) is “inhibitory effect on bacterial quorum sensing”. `CCCCCCCCNC(=O)NN1CCOC1=O` [Compound 19, 1-(2-oxo-oxazolidin-3-yl)-3-octyl urea] came in with a melting point of 64 to 65 °C. Further, in the series with C. violaceum CV026, the “Regulatory activity” value is recorded as “−” and the “Effect on bacterial quorum sensing” value was “inhibitory effect on bacterial quorum sensing”. For the molecule `O=C(NC1CCCCC1)NN1CCOC1=O` [Compound 22, 1-cyclohexyl-3-(2-oxo-oxazolidin-3-yl)urea], the melting point lay within 203 to 205 °C. In the case of `CC(C)(C)c1ccc(C(=O)NN2CCOC2=O)cc1` [Compound 2, 4-tert-butyl-N-(2-oxo-oxazolidin-3-yl)benzamide], the melting point was in the range of 187 to 189 °C. Moreover, in the series on C. violaceum CV026, the “Regulatory activity” value is “−” and the “Effect on bacterial quorum sensing” value is “inhibitory effect on bacterial quorum sensing”. As to `Cc1ccc(CCC(=O)NN2CCOC2=O)cc1` [Compound 38], the melting point lay in the range of 146 to 148 °C. For the same molecule, in the series with C. violaceum CV026, the “Regulatory activity” value is given as “+”. `Cc1cccc(NC(=O)NN2CCOC2=O)c1`: the melting point was in the range of 191 to 192 °C. With `O=C(NN1CCOC1=O)c1cccc(Cl)c1` [Compound 5, 3-chloro-N-(2-oxo-oxazolidin-3-yl)benzamide], the melting point is 151 to 152 °C. Moreover, the “Regulatory activity” value in the series with C. violaceum CV026 is recorded as “+”.

For the molecule `O=C1OCCN1NC(=S)Nc1ccc(F)cc1` [Compound 28, 1-(4-fluorophenyl)-3-(2-oxo-oxazolidin-3-yl)sulfourea], the melting point was 190 to 191 °C.

`O=C(Cc1ccc(Cl)cc1)NN1CCOC1=O` [Compound 34, 2-(4-chlorophenyl)-N-(2-oxo-oxazolidin-3-yl)acetamide] showed a melting point of 124 to 127 °C. The “Regulatory activity” value in the series with C. violaceum CV026 is given as “+”. `O=C(NN1CCOC1=O)c1ccccc1F` [Compound 6, 2-fluoro-N-(2-oxo-oxazolidin-3-yl)benzamide] returned a melting point of 124 to 127 °C. For the molecule `Cc1ccc(CC(=O)NN2CCOC2=O)cc1` [Compound 35, 2-(4-tolyl)-N-(2-oxo-oxazolidin-3-yl)acetamide], the melting point was 108 to 111 °C. Moreover, in the series with C. violaceum CV026, the “Regulatory activity” value was “+”. In turn, `O=C(Cc1ccc(F)cc1)NN1CCOC1=O` [Compound 31, 2-(4-fluorophenyl)-N-(2-oxo-oxazolidin-3-yl)acetamide] gave a melting point of 131 to 134 °C. Besides, in the series on C. violaceum CV026, the “Regulatory activity” value was “+”. On to `O=C(NN1CCOC1=O)c1cccc(F)c1`, for which the melting point lay within 166 to 169 °C. On the same count and under the same terms, the result for `Cc1ccc(NC(=O)NN2CCOC2=O)cc1` reads 205 to 207 °C. The molecule `O=C(NN1CCOC1=O)c1ccccc1Cl` [Compound 4, 2-chloro-N-(2-oxo-oxazolidin-3-yl)benzamide] registered a melting point of 166 to 168 °C. Besides, in the series on C. violaceum CV026, the “Regulatory activity” value is listed as “±”; the “Effect on bacterial quorum sensing” value is “both an agonizing effect and an inhibitory effect”.

Take `O=C(CCc1ccccc1)NN1CCOC1=O` [Compound 37]: the “Regulatory activity” value in the series on C. violaceum CV026 is listed as “+”. Still for that read-out and setting: the result for `O=C(NN1CCOC1=O)c1ccc(F)cc1` [Compound 9, 4-fluoro-N-(2-oxo-oxazolidin-3-yl)benzamide] reads “+”.

Molecule `CCCCCCNC(=O)NN1CCOC1=O` [Compound 17, 1-(2-oxo-oxazolidin-3-yl)-3-hexyl urea] had a melting point of 74 to 75 °C. Same read-out and setting: the result for `CCCCNC(=O)NN1CCOC1=O` [Compound 15, 1-(2-oxo-oxazolidin-3-yl)-3-butyl urea] reads 98 to 100 °C; that for `O=C(NCc1ccccc1)NN1CCOC1=O` [Compound 23, 1-benzyl-3-(2-oxo-oxazolidin-3-yl)urea], 160 to 161 °C.

Take `O=C1OCCN1NC(=S)Nc1ccccc1` [Compound 27, 1-(2-oxo-oxazolidin-3-yl)phenylthiourea]: the melting point lay within 191 to 193 °C. `O=C(Nc1ccc(Br)cc1)NN1CCOC1=O` [Compound 20, 1-(4-bromophenyl)-3-(2-oxo-oxazolidin-3-yl)urea] registered a melting point of 212 to 215 °C. Molecule `O=C(NN1CCOC1=O)c1ccccc1C(F)(F)F` [Compound 10, 2-trifluoromethyl-N-(2-oxo-oxazolidin-3-yl)benzamide] showed a melting point of 139 to 141 °C. Further, the “Regulatory activity” value in the series with C. violaceum CV026 is listed as “+”.

For `O=C(Cc1ccc([N+](=O)[O-])cc1)NN1CCOC1=O` [Compound 33, 2-(4-nitrophenyl)-N-(2-oxo-oxazolidin-3-yl)acetamide], the melting point was in the range of 180 to 183 °C. Also, the “Regulatory activity” value in the series with C. violaceum CV026 is given as “+”. For the molecule `O=C(NCCc1ccccc1)NN1CCOC1=O` [Compound 24, 1-(2-oxo-oxazolidin-3-yl)phenyl ethyl urea], the melting point is 123 to 125 °C. The molecule `O=C(CCc1ccc(Cl)cc1)NN1CCOC1=O` [Compound 39] had a melting point of 134 to 136 °C. In the series on C. violaceum CV026, the “Regulatory activity” value is recorded as “+”. On the same counts, the results for `O=C(CCCc1ccccc1)NN1CCOC1=O` [Compound 40, N-(2-oxo-oxazolidin-3-yl)-4-phenyl butanamide] are 104 to 107 °C and “+”.

As to `O=C(Nc1cccc(Br)c1)NN1CCOC1=O`, the melting point lay in the range of 197 to 199 °C. For `COc1ccc(CC(=O)NN2CCOC2=O)cc1` [Compound 32, 2-(4-methoxyphenyl)-N-(2-oxo-oxazolidin-3-yl)acetamide], the melting point lay in the range of 90 to 92 °C. For the same molecule, the “Regulatory activity” value in the series with C. violaceum CV026 is recorded as “+”. Take `O=C(NN1CCOC1=O)c1ccc(CCl)cc1` [Compound 3, 4-chloromethyl-N-(2-oxo-oxazolidin-3-yl)benzamide]: the melting point fell in the range of 206 to 208 °C. In addition, in the series on C. violaceum CV026, the “Regulatory activity” value is recorded as “−” and the “Effect on bacterial quorum sensing” value was “inhibitory effect on bacterial quorum sensing”. `O=C(Nc1ccc(OC(F)(F)F)cc1)NN1CCOC1=O` registered a melting point of 205 to 206 °C.
